Results published in patent US20100317647A1 (priority 2009, published 2010).

Target: human Cat S (Homo sapiens, UniProt P25774)
Experiment: Cathepsin enzyme inhibition assay (fluorogenic peptide substrate cleavage)
Assay type: biochemical
Conditions: human Cat S 1 nM; substrate Z-Val-Val-Arg-AMC 20 μM; pH 6.5; fluorescence over 20 minutes
Method in brief: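 IC50 values derived from fluorescence increase (ex 360 nm, em 465 nm) monitored for 20 minutes after substrate addition. Enzyme held at 1 nM with 20 μM Z-Val-Val-Arg-AMC, in pH 6.5 potassium phosphate buffer containing DTT, EDTA and Triton X-100.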

human Cat S, sequence (P25774 115-331): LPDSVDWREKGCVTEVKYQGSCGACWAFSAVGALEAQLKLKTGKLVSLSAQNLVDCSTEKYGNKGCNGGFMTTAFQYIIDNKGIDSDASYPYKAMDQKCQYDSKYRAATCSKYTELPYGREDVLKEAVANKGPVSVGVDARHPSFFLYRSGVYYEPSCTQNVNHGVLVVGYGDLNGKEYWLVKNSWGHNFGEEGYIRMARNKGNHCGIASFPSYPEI

Row | Structure (SMILES) | IC50
1 | CCCO[C@@H]1C[C@H](S(=O)(=O)c2ccccc2C(F)(F)F)C[C@H]1C(=O)NCC#N (racemic) [Example 55, (1R,2R,4R) and (1S,2S,4S)-2-Propoxy-4-(2-trifluoromethyl-benzenesulfonyl)-cyclopentanecarboxylic acid cyanomethyl-amide] | 2.1 nM
2 | Cc1cc(Cl)ccc1S(=O)(=O)[C@@H]1C[C@@H](C(=O)NC(C#N)c2ccccc2)[C@H](C(=O)N2CCOCC2)C1 (stereo partly drawn) [Example 31, (1R,2R,4R)-4-(4-Chloro-2-methyl-benzenesulfonyl)-2-(morpholine-4-carbonyl)-cyclopentanecarboxylic acid (cyano-phenyl-methyl)-amide] | 0.2 nM
3 | CO[C@@H]1C[C@H](S(=O)(=O)c2ccc(-c3cncc(Cl)c3)cc2C(F)(F)F)C[C@H]1C(=O)NC1(C#N)CC1 (racemic) [Example 90, (1R,2R,4R) and (1S,2S,4S)-4-[4-(5-Chloro-pyridin-3-yl)-2-trifluoromethyl-benzenesulfonyl]-2-methoxy-cyclopentanecarboxylic acid (1-cyano-cyclopropyl)-amide] | 0.4 nM
4 | COC[C@@H]1C[C@@H](S(=O)(=O)c2ccccc2Cl)C[C@H]1C(=O)NC1(C#N)CC1 (single isomer, unassigned) [Example 106] | 1010 nM
5 | CCN(CC)C(=O)[C@@H]1C[C@H](S(=O)(=O)c2ccccc2)C[C@H]1C(=O)NC1(C#N)CC1 [Example 25, (1R,2R,4R)-4-Benzenesulfonyl-cyclopentane-1,2-dicarboxylic acid 1-[(1-cyano-cyclopropyl)-amide]2-diethylamide] | 2.6 nM
6 | N#CC1(NC(=O)[C@H]2CC[C@@H](S(=O)(=O)c3ccc(OCC(F)(F)F)cc3Cl)C2)CC1 (single isomer, unassigned) [Example 99] | 500 nM
7 | CC(C)OC[C@@H]1C[C@H](S(=O)(=O)c2ccc(F)cc2Cl)C[C@H]1C(=O)NC1(C#N)CC1 [Example 156, (1R,2R,4S)-4-(2-Chloro-4-fluoro-benzenesulfonyl)-2-isopropoxymethyl-cyclopentanecarboxylic acid (1-cyano-cyclopropyl)-amide] | 31.5 nM
8 | N#CC1(NC(=O)[C@H]2C[C@@H](S(=O)(=O)c3ccccc3Cl)C[C@@H]2O)CC1 (racemic) [Example 52, (1S,2S,4R) and (1R,2R,4S)-4-(2-Chloro-benzenesulfonyl)-2-hydroxy-cyclopentanecarboxylic acid (1-cyano-cyclopropyl)-amide] | 11700 nM
9 | N#CC1(NC(=O)[C@@H]2C[C@@H](S(=O)(=O)c3ccccc3)C[C@H]2C(=O)N2CCOCC2)CC1 [Example 2, (1R,2R,4R)-4-Benzenesulfonyl-2-(morpholine-4-carbonyl)-cyclopentanecarboxylic acid (1-cyano-cyclopropyl)-amide] | 0.7 nM
10 | N#CC1(NC(=O)[C@H]2CC[C@@H](S(=O)(=O)c3ccc(-n4cccn4)cc3Cl)C2)CC1 (single isomer, unassigned) [Example 101] | 610 nM
11 | N#CC1(NC(=O)[C@@H]2C[C@@H](S(=O)(=O)c3ccccc3Cl)C[C@H]2OCc2ccc(Cl)cc2F)CC1 (racemic) [Example 252, (1R,2R,4R) and (1S,2S,4S)-4-(2-Chloro-benzenesulfonyl)-2-(4-chloro-2-fluoro-benzyloxy)-cyclopentanecarboxylic acid (1-cyano-cyclopropyl)-amide] | 4.99 nM
12 | COC[C@@H]1C[C@H](S(=O)(=O)c2ccccc2Cl)C[C@H]1C(=O)NC1(C#N)CC1 (single isomer, unassigned) [Example 105] | 22.3 nM
13 | CC(=O)N1CCN(c2ccc(S(=O)(=O)[C@H]3C[C@@H](C(=O)NC4(C#N)CC4)[C@H](C(=O)N4CCC(F)(F)C4)C3)c(Cl)c2)CC1 [Example 209, (1R,2R,4S)-4-[4-(4-Acetyl-piperazin-1-yl)-2-chloro-benzenesulfonyl]-2-(3,3-difluoro-pyrrolidine-1-carbonyl)-cyclopentanecarboxylic acid (1-cyano-cyclopropyl)-amide] | 0.54 nM
14 | COC[C@@H]1C[C@H](S(=O)(=O)c2ccccc2Cl)C[C@H]1C(=O)NCC#N (single isomer, unassigned) [Example 103] | 20.7 nM
